From the NIST ThermoML archive (doi:10.1016/j.jct.2013.12.019)

Test: mn = molality of the nth substance listed, in mol/kg
Conditions: 101 kPa, Liquid, Alternating current cell with electrodes

CCCCCCCCCCCC[N+](C)(C)C.[Br-] [dodecyltrimethylammonium bromide] + O
electrical conductivity [S/m]
Conditions | 293.15 K | 298.15 K | 303.15 K | 308.15 K | 313.15 K
m1 = 0.0015 | 0.014 | 0.0143 | 0.0144 | 0.0153 | 0.0169
m1 = 0.003 | 0.027 | 0.0273 | 0.0278 | 0.0286 | 0.032
m1 = 0.0045 | 0.0397 | 0.0412 | 0.0413 | 0.042 | 0.0469
m1 = 0.006 | 0.0524 | 0.0535 | 0.055 | 0.0551 | 0.061
m1 = 0.0075 | 0.0645 | 0.0669 | 0.0675 | 0.068 | 0.0759
m1 = 0.009 | 0.0763 | 0.0784 | 0.0798 | 0.0808 | 0.0895
m1 = 0.0105 | 0.088 | 0.091 | 0.0908 | 0.0927 | 0.103
m1 = 0.012 | 0.0995 | 0.102 | 0.103 | 0.105 | 0.116
m1 = 0.0135 | 0.111 | 0.113 | 0.114 | 0.117 | 0.129
m1 = 0.015 | 0.121 | 0.123 | 0.126 | 0.128 | 0.137
m1 = 0.0165 | 0.13 | 0.132 | 0.132 | 0.134 | 0.144
m1 = 0.018 | 0.136 | 0.137 | 0.137 | 0.139 | 0.149
m1 = 0.0195 | 0.139 | 0.14 | 0.141 | 0.142 | 0.152
m1 = 0.021 | 0.142 | 0.142 | 0.143 | 0.145 | 0.156
m1 = 0.0225 | 0.145 | 0.145 | 0.146 | 0.148 | 0.16
m1 = 0.024 | 0.147 | 0.148 | 0.149 | 0.151 | 0.162
m1 = 0.0255 | 0.15 | 0.151 | 0.151 | 0.154 | 0.165
m1 = 0.027 | 0.153 | 0.154 | 0.154 | 0.158 | 0.168
m1 = 0.0285 | 0.156 | 0.156 | 0.156 | 0.16 | 0.171
m1 = 0.03 | 0.159 | 0.159 | 0.16 | 0.163 | 0.173
